Measurements: publication PMC9783573, “Introduction of a SiFA Moiety into the D-Glutamate Chain of DOTA-PP-F11N Results in Radiohybrid-Based CCK-2R-Targeted Compounds with Improved Pharmacokinetics In Vivo” (Pharmaceuticals, 2022)
Where two headings read alike, the source gives them in different places. Non-standard residues stand in square brackets, D forms with d. Residues, ends and D or L forms follow the SMILES beside them. *: point of attachment. X1 = O=C(O)CN1CCN(CC(=O)O)CCN([C@H](CCC(=O)*)C(=O)O)CCN(CC(=O)O)CC1; Benzoyl(4-SiFtBu2) = CC(C)(C)[Si](F)(c1ccc(C(=O)*)cc1)C(C)(C)C; Nle = CCCC[C@H](N)C(=O)O; dDap = NC[C@@H](N)C(=O)O

Biological target: T1, CCK-2R (Rattus norvegicus, UniProt P30553)
T1 construct: CCK-2R expressing rat pancreatic cancer cells AR42J (CLS GmbH, Eppelheim,; host or cells: AR42J rat pancreatic cancer cells
T1 sequence (P30553 1-452): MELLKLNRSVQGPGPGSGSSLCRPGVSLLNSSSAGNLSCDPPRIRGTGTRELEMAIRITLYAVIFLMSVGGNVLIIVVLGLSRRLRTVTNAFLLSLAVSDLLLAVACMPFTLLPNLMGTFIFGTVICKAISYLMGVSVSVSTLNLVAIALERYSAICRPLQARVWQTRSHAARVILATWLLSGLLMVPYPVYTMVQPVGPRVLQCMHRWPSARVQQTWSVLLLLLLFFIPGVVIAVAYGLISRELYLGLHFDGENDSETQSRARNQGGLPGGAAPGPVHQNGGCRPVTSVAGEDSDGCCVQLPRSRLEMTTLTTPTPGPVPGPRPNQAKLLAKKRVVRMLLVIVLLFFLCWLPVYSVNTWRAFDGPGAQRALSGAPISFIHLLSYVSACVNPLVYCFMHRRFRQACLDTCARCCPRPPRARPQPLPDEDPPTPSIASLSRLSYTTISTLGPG
Test: Competitive binding (IC50) on AR42J cells with [177Lu]Lu-DOTA-PP-F11N as radiolabelled reference
Details: natLu-labelled peptide, AR42J cells 2.0 × 10^5/well, 3 h, 37 °C, [177Lu]Lu-DOTA-PP-F11N 0.3 pmol/well
Experimental: Detailed description of all cell-based experiments is provided in the Supplementary Materials. In brief, competitive binding studies were conducted on AR42J cells (2.0 × 10^5 cells per 1 mL/well) via incubation at 37 °C for 3 h using [^177Lu]Lu-DOTA-PP-F11N (0.3 pmol) as a radiolabelled reference (n = 3).
Cell Culture. CCK-2R expressing rat pancreatic cancer cells AR42J (CLS GmbH, Eppelheim, Germany) were cultivated in monolayers in CELLSTAR ® cell culture flasks acquired from Greiner Bio-One GmbH (Frickenhausen, Germany) at 37 °C in a humidified atmosphere (5% CO2) using a HERAcell 150i-Incubator (Thermo Fisher Scientific Inc., Waltham, United States). As nutrient medium RPMI 1640 medium, supplemented with 5 mM L-Gln 5 mL non-essential amino acids (100×) and 10% FCS, was used. Furthermore, a Dulbecco’s PBS solution with 0.1% EDTA (v/v) was applied to detach the cells for cell passaging. The detached cells were counted using a Neubauer hemocytometer ( Paul Marienfeld, Lauda-Königshofen, Germany). In addition, all operations under sterile conditions were accomplished using a MSC-Advantage safety workbench (Thermo Fisher Scientific Inc., Waltham, United States).
Determination of IC50. AR42J cells (2.0 × 10^5 cells/well) were seeded into 24-well plates 24 ± 2 h prior to testing, using 1 mL of nutrient medium (RPMI 1640, 5 mM L-Gln, 5 mL non-essential amino acids (100×), 10% FCS). Cells were incubated at 37 °C in a humidified atmosphere (5% CO2).
After removal of the medium, each well was washed with 500 μL PBS. For the cell-based assay, 200 μL of nutrient medium (+5% BSA), [177Lu]Lu-DOTA-PP-F11N (25 μL, 0.3 pmol) as a radiolabeled reference and 25 μL of the peptide of interest in increasing concentrations (10−10 to 10−4 M) in triplicate were added to the cells. Thereafter, the assay was incubated for 3 h at 37 °C and thereafter, the supernatant was collected. The cells were washed with 300 μL PBS and the collected supernatant fractions were unified.
After lysis of the cells with NaOH (300 μL, 1 N) for 15 min, the respective wells were washed with NaOH (300 μL, 1 N) and both fractions were unified. The radioactivity of both, the supernatant and the lysed fractions was quantified using a γ-counter (PerkinElmer Inc., Waltham, United States ). The obtained data were evaluated via the GraphPad PRISM software ( GraphPad Software Inc., La Jolla, United States), which calculates the halfmaximal inhibitory concentration ( IC50) of the peptides. […]

Row | SMILES | IC50 | other results
1 | CCCC[C@H](NC(=O)[C@H](Cc1c[nH]c2ccccc12)NC(=O)CNC(=O)[C@H](Cc1ccc(O)cc1)NC(=O)[C@H](C)NC(=O)[C@@H](CCC(=O)O)NC(=O)[C@@H](CCC(=O)O)NC(=O)[C@@H](CCC(=O)O)NC(=O)[C@@H](CCC(=O)O)NC(=O)[C@@H](CCC(=O)O)NC(=O)[C@@H](CCC(=O)O)NC(=O)CN1CCN(CC(=O)O)CCN(CC(=O)O)CCN(CC(=O)O)CC1)C(=O)N[C@@H](CC(=O)O)C(=O)N[C@@H](Cc1ccccc1)C(N)=O [[nat/177Lu]Lu-DOTA-PP-F11N, metal not drawn, reference compound] |  | IC50 (read-out: IC50): 11 to 13 nM
2 | CCCC[C@H](NC(=O)[C@H](Cc1c[nH]c2ccccc12)NC(=O)CNC(=O)[C@H](Cc1ccc(O)cc1)NC(=O)[C@H](C)NC(=O)CC[C@@H](NC(=O)CC[C@@H](NC(=O)CC[C@@H](NC(=O)CC[C@@H](NC(=O)CC[C@@H](NC(=O)CC[C@@H](NC(=O)[C@@H](CNC(=O)c1ccc([Si](F)(C(C)(C)C)C(C)(C)C)cc1)NC(=O)CC[C@H](C(=O)O)N1CCN(CC(=O)O)CCN(CC(=O)O)CCN(CC(=O)O)CC1)C(=O)O)C(=O)O)C(=O)O)C(=O)O)C(=O)O)C(=O)O)C(=O)N[C@@H](CC(=O)O)C(=O)N[C@@H](Cc1ccccc1)C(N)=O [[nat/177Lu]Lu-(R)-DOTAGA-rhCCK-16, metal not drawn] | 20.4 ± 2.7 nM | 
3 | CSCC[C@H](NC(=O)[C@H](Cc1c[nH]c2ccccc12)NC(=O)CNC(=O)[C@H](Cc1ccc(O)cc1)NC(=O)[C@H](C)NC(=O)[C@@H](CCC(=O)O)NC(=O)[C@@H](CCC(=O)O)NC(=O)[C@@H](CCC(=O)O)NC(=O)[C@@H](CCC(=O)O)NC(=O)[C@@H](CCC(=O)O)NC(=O)[C@@H](CCC(=O)O)NC(=O)CN1CCN(CC(=O)O)CCN(CC(=O)O)CCN(CC(=O)O)CC1)C(=O)N[C@@H](CC(=O)O)C(=O)N[C@@H](Cc1ccccc1)C(N)=O [[nat/177Lu]Lu-CP04, metal not drawn, reference compound] |  | IC50 (listed as [^natLu]Lu-CP04, read-out: IC50): 11 to 13 nM
4 | CCCC[C@H](NC(=O)[C@H](Cc1c[nH]c2ccccc12)NC(=O)CNC(=O)[C@H](Cc1ccc(O)cc1)NC(=O)[C@H](C)NC(=O)[C@@H](CCC(=O)O)NC(=O)[C@@H](CCC(=O)O)NC(=O)[C@@H](CCC(=O)O)NC(=O)[C@@H](CCC(=O)O)NC(=O)[C@@H](CCC(=O)O)NC(=O)[C@@H](CCC(=O)O)NC(=O)[C@@H](CCC(=O)O)NC(=O)[C@@H](CCC(=O)O)NC(=O)[C@@H](CNC(=O)c1ccc([Si](F)(C(C)(C)C)C(C)(C)C)cc1)NC(=O)CC[C@H](C(=O)O)N1CCN(CC(=O)O)CCN(CC(=O)O)CCN(CC(=O)O)CC1)C(=O)N[C@@H](CC(=O)O)C(=O)N[C@@H](Cc1ccccc1)C(N)=O [[nat/177Lu]Lu-(R)-DOTAGA-rhCCK-9, metal not drawn] (X1-[dDap](Benzoyl(4-SiFtBu2))[dE][dE][dE][dE][dE][dE][dE][dE]AYGW[Nle]DF-NH2) | 55.3 ± 7.8 nM | 
